≈ marks a conversion by molar mass, not a printed value. Calls of active or inactive are those of the source. The calls are words filed in the database; no cut-off is given here.
Columns and labels:
[1] = system: Escherichia coli; experiment: Antimicrobial activity against Escherichia coli ATCC 25922 assessed as increase in absorbance incubated for 20 to 22 hrs in presence of NH4+ physiological salt; format: functional, organism-based; details: time 20-22 hrs
[2] = system: Escherichia coli; experiment: Antimicrobial activity against Escherichia coli ATCC 25922 assessed as increase in absorbance at MIC concentration in presence of […] ug/ml Lipopolysaccharide incubated for 8 hrs; format: functional, organism-based; details: dose 64.0 µg/ml
[3] = molecular target: Trypsin (Homo sapiens, UniProt P07477+P07478+P35030); experiment: Stability of compound assessed as trypsin (unknown origin)-mediated compound structural integrity change at 8 mg/ml incubated for 1 to 8 hrs by 16.5% tricine-SDS-PAGE analysis; format: ADME, protein assay; details: time 1-8 hrs
[4] = system: Escherichia coli; experiment: Bactericidal activity against Escherichia coli ATCC 25922 assessed as reduction in bacterial viability; format: functional, organism-based
[5] = system: Pseudomonas aeruginosa; experiment: Antimicrobial activity against Pseudomonas aeruginosa 27853 assessed as increase in absorbance incubated for 20 to 22 hrs; format: functional; details: time 20-22 hrs

SMILES: CCCCCCCCCC(=O)NCCCC[C@H](N)C(=O)NCC(=O)NCC(=O)NCC(=O)N[C@H](CCCNC(=N)N)C(=O)N[C@@H](CCCNC(=N)N)C(=O)N[C@@H](CCCNC(=N)N)C(=O)N1CCC[C@H]1C(=O)N[C@@H](CSSC[C@H](NC(=O)[C@@H]1CCCN1C(=O)[C@H](CCCNC(=N)N)NC(=O)[C@H](CCCNC(=N)N)NC(=O)[C@@H](CCCNC(=N)N)NC(=O)CNC(=O)CNC(=O)CNC(=O)[C@@H](N)CCCCNC(=O)CCCCCCCCC)C(=O)O)C(=O)O
- Activity [1]: Active; C-C10)C-C Demonstrated Superior Physiological Salt Tolerance In Comparison To (N-C10)C-C
- Activity [2]: inactive
- Stability [3]: Stable
- Activity [4]: Dose-dependent-effect
- MIC [5]: 4 µM (≈ 9.12 µg/mL)

— ChEMBL document CHEMBL6087476, “Positive Charge-Concentrated Dimeric Lipopeptides with Enhanced Protease Resistance: A Potential Solution for Systemic Bacterial Infections” (J Med Chem, 2025)
